# Laboratory results reported in US20020115624A1, “Alpha gylcosylceramides for treating bacterial and fungal infections” (priority 2000, published 2002).
# How the values were obtained:
# M. tuberculosis (Erdman) = assay: Intravenous inoculation model of tuberculosis: survival of infected BALB/c mice treated with α-galactosylceramide; type: in vivo
# [1] = system: NK, B, CD8+, and CD4+ lymphocytes; conditions: cited from earlier work
# NKT cells = conditions: specificity for the α-linkage; cited from earlier work
Compound,"survival compared to the control group (M. tuberculosis (Erdman); BALB/c mice, 5×10^5 cfu IV, 2 ug IP on days 1, 5 and 9, nine mice per group)","mean survival time (MST) (M. tuberculosis (Erdman); BALB/c mice, 5×10^5 cfu IV, 2 ug IP on days 1, 5 and 9 after infection, vehicle MST 60 days, p<0.0001 by log-rank test)","bacteriological cure (M. tuberculosis (Erdman); preliminary experiments, all of the infected mice died despite treatment)","time to activation of NK, B, CD8+ and CD4+ lymphocytes (induction of CD69, CD80, CD86) ([1]; administration to mice in vivo)",time to detectable increase in serum IFN-γ ([1]; following in vivo treatment of mice),activation of the immune system ([1]; mice that lack CD1d (CD1d −/−) or lack NKT cells (Jα281−/−)),activation of NKT cells (NKT cells)
CCCCCCCCCCCCCCCCCCCCCCCCCC(=O)N[C@@H](CO[C@H]1O[C@H](CO)[C@H](O)[C@H](O)[C@H]1O)[C@H](O)[C@H](O)CCCCCCCCCCCCCC [α-galactosylceramide],increased survival,91 days,did not result in a bacteriological cure,3 to 24 h,≤ 18 h,does not occur,–
β-galactosylceramide,–,–,–,–,–,–,does not activate NKT cells
